Consider one compound from US8632839B2, “Methods of forming self-supporting films for delivery of therapeutic agents” (priority 2010, dated 2014).

The structures appear in SMILES notation. Counter-ions that a name gives are not always drawn.

This data set is described as follows: saturation and payload limits for dip coating bupivacaine HCl on polyester mesh (FIG. 8). Type of data set: physicochemical. Particulars: Parietex monofilament polyester mesh without polymer film. The text has this:
Further, it is believed that spraying films on a medical device (e.g., mesh) compared to other conventional methods, such as dip coating, provides increased loading of the therapeutic agent.
More particularly FIG. 8 illustrates the loading limits for a polyester mesh (Parietex™ monofilament mesh) without a polymer film.

Regarding `CCCCN1CCCCC1C(=O)Nc1c(C)cccc1C` (centres unmarked) [bupivacaine HCl, bupivacaine hydrochloride], the “saturation and payload limit for dip coating solution” value is on record as 12 % w/v (solution in MeOH) and 5 % w/v (solution in water).
